Measurements as given in paper PMC3743547 (Biochemistry, 2013).

Tests used:
MppR [1] = molecular target: T1, MppR (Streptomyces hygroscopicus, UniProt Q643B8); assay: X-ray crystal structure, […] Å; assay type: binding; conditions: covalent; Schiff base with Lys156; 30 mM sodium pyruvate, 24 h soak
MppR [2] = molecular target: T1, MppR; assay: steady-state kinetics of aldol condensation; assay type: biochemical; conditions: co-substrate pyruvate; no saturation below the solubility limit

SMILES | X-ray crystal structure, 1.72 Å (crystal soak) (MppR [1]) | Km (MppR [2]) [mM]
CC(=O)C(=O)O [pyruvate] | resulting structure showed pyruvate covalently bound to Lys156 as the Schiff base | –
O=Cc1c[nH]cn1 [compound 6, 4-imidazolecarboxaldehyde] | – | > 50
